Reference: ChEMBL document CHEMBL2046291, “Potent inhibition of norovirus 3CL protease by peptidyl α-ketoamides and α-ketoheterocycles” (Bioorg Med Chem Lett, 2012)

Tests used:
[1] = tested on: Norovirus; assay: Antiviral activity against Norovirus infected in human HG23 cells; format: functional; conditions: read-out: ED50 (the source's name)
[2] = Inhibition of Norovirus recombinant 3CL protease using Edans-EPDFHLQGPEDLAK-Dabcyl as substrate for 30 mins by fluorometry

SMILES | EC50 [1] | IC50 [2]
CC(C)C[C@H](NC(=O)OCc1ccccc1)C(=O)N[C@@H](CC1CCNC1=O)C(=O)C(=O)NC(C)C (stereo not given in full) | 2.8 µM | 5.3 µM
CC(C)C[C@H](NC(=O)OCc1ccccc1)C(=O)N[C@@H](CC1CCNC1=O)C(=O)C(=O)NCc1ccccc1 (stereo not given in full) | 1.8 µM | 7.1 µM
CC(C)C[C@H](NC(=O)OCc1ccccc1)C(=O)N[C@@H](CC1CCNC1=O)C(O)C(=O)NC(C)C (stereo not given in full) | 4.1 µM | 45.3 µM
CC(C)C[C@H](NC(=O)OCc1ccccc1)C(=O)N[C@@H](CC1CCNC1=O)C(O)C(=O)NC1CC1 (stereo not given in full) | > 10 µM | > 50 µM
CC(C)C[C@H](NC(=O)OCc1ccccc1)C(=O)N[C@@H](CC1CCNC1=O)C(=O)C(=O)NC1CC1 (stereo not given in full) | 1.1 µM | 3.4 µM
CCCCNC(=O)C(O)[C@H](CC1CCNC1=O)NC(=O)[C@H](CC(C)C)NC(=O)OCc1ccccc1 (stereo not given in full) | > 20 µM | > 50 µM
CCCCNC(=O)C(=O)[C@H](CC1CCNC1=O)NC(=O)[C@H](CC(C)C)NC(=O)OCc1ccccc1 (stereo not given in full) | 1.3 µM | 4.1 µM
CCOC(=O)CNC(=O)C(O)[C@H](CC1CCNC1=O)NC(=O)[C@H](CC(C)C)NC(=O)OCc1ccccc1 (stereo not given in full) | > 10 µM | > 50 µM
CCOC(=O)CNC(=O)C(=O)[C@H](CC1CCNC1=O)NC(=O)[C@H](CC(C)C)NC(=O)OCc1ccccc1 (stereo not given in full) | 0.8 µM | 2.1 µM
CC(C)C[C@H](NC(=O)OCc1ccccc1)C(=O)N[C@@H](CC1CCNC1=O)C(O)C(=O)NC1CCCCC1 (stereo not given in full) | > 20 µM | > 50 µM
CC(C)C[C@H](NC(=O)OCc1ccccc1)C(=O)N[C@@H](CC1CCNC1=O)C(=O)C(=O)NC1CCCCC1 (stereo not given in full) | 1.2 µM | 3.5 µM
CC(C)C[C@H](NC(=O)OCc1ccccc1)C(=O)N[C@@H](CC1CCNC1=O)C(O)C(=O)NCc1ccccc1 (stereo not given in full) | > 20 µM | > 50 µM
CC(C)C[C@H](NC(=O)OCc1ccccc1)C(=O)N[C@@H](CC1CCNC1=O)C(O)C(=O)NC(C)(C)C (stereo not given in full) | > 20 µM | > 50 µM
CC(C)C[C@H](NC(=O)OCc1ccccc1)C(=O)N[C@@H](CC1CCNC1=O)C(=O)C(=O)NC(C)(C)C (stereo not given in full) | 1.1 µM | 2.8 µM
CC(C)NC(=O)C(O)[C@H](CC1CCNC1=O)NC(=O)[C@H](Cc1ccccc1)NC(=O)OCc1ccccc1 (stereo not given in full) | 6.3 µM | 23.1 µM
CC(C)NC(=O)C(=O)[C@H](CC1CCNC1=O)NC(=O)[C@H](Cc1ccccc1)NC(=O)OCc1ccccc1 (stereo not given in full) | 4.2 µM | 21.5 µM
CC(C)C[C@H](NC(=O)OCc1ccccc1)C(=O)N[C@@H](CC1CCNC1=O)C(O)c1ncco1 (stereo not given in full) | > 20 µM | > 50 µM
CC(C)C[C@H](NC(=O)OCc1ccccc1)C(=O)N[C@@H](CC1CCNC1=O)C(=O)c1ncco1 (stereo not given in full) | 0.9 µM | 2.3 µM
CC(C)C[C@H](NC(=O)OCc1ccccc1)C(=O)N[C@@H](CC1CCNC1=O)C(O)c1nccs1 (stereo not given in full) | 4.3 µM | 12.3 µM
CC(C)C[C@H](NC(=O)OCc1ccccc1)C(=O)N[C@@H](CC1CCNC1=O)C(=O)c1nccs1 (stereo not given in full) | 4.2 µM | 8.8 µM
